Pest or weed control, BAW rating and CL rating data for 19 compounds are collected here from patent publication US20230077362A1 (CORTEVA AGRISCIENCE LLC, priority 2019, published 2023).

SMILES strings stand for the structures.

The subject of assay [1] is Beet Armyworm (Spodoptera exigua) ("BAW"), second instar larvae. Kind of assay: Bioassay on beet armyworm (BAW), 128-well diet tray assay. To be noted: for pest or weed control at 50 µg/cm2: Spodoptera exigua, read-out: BAW rating; for BAW rating: Table ABC, species BAW, C = not tested, D = no activity noticed. Type of assay: in vivo. The essentials: (§1)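 After sealing with a clear self-adhesive lid, the trays are incubated at 25° C. with 14 h light and 10 h dark for 5 to 7 days; mortality in each well is recorded as a percentage and averaged across the eight wells.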

Assay [2] concerns Cabbage Looper (Trichoplusia ni) ("CL"), second instar larvae. Kind of assay: Bioassay on cabbage looper (CL), 128-well diet tray assay. Format: in vivo. To be noted: for pest or weed control at 50 µg/cm2: Trichoplusia ni, read-out: CL rating; for CL rating: Table ABC, species CL, C = not tested, D = no activity noticed. The essentials: as §1

For the compound `Cc1ccc(COCc2ccccc2F)c(N2C(=O)CS/C2=N\C(=O)Nc2ccc(-c3ncn(-c4ccc(OC(F)(F)F)cc4)n3)cc2F)c1` [Compound J635, (Z)-1-(2-Fluoro-4-(1-(4-(trifluoromethoxy)phenyl)-1H-1,2,4-triazol-3-yl)phenyl)-3-(3-(2-(((2-fluorobenzyl)oxy)methyl)-5-methylphenyl)-4-oxothiazolidin-2-ylidene)urea], the pest or weed control at 50 µg/cm2 in assay [1] and in assay [2] was 50 to 100% in each case.

Consider `O=C(/N=C1\SCC(=O)N1c1ccc(Cl)cc1COCc1ccccc1)Nc1ccc(-c2ncn(-c3ccc(OC(F)(F)F)cc3)n2)cc1F` [Compound J636, (Z)-1-(3-(2-((Benzyloxy)methyl)-4-chlorophenyl)-4-oxothiazolidin-2-ylidene)-3-(2-fluoro-4-(1-(4-(trifluoromethoxy)phenyl)-1H-1,2,4-triazol-3-yl)phenyl)urea], for which the pest or weed control at 50 µg/cm2 was 50 to 100% in assay [1] and 0 to 50% in assay [2].

For the compound `Cc1ccc(COCc2nc3ccccc3s2)c(N2C(=O)CS/C2=N\C(=O)Nc2ccc(-c3ncn(-c4ccc(OC(F)(F)F)cc4)n3)cc2F)c1` [Compound J640, (Z)-1-(3-(2-((Benzo[d]thiazol-2-ylmethoxy)methyl)-5-methylphenyl)-4-oxothiazolidin-2-ylidene)-3-(2-fluoro-4-(1-(4-(trifluoromethoxy)phenyl)-1H-1,2,4-triazol-3-yl)phenyl)urea], the pest or weed control at 50 µg/cm2 in assay [1] and in assay [2] was 50 to 100% throughout.

For `CCc1ccc(COCC(F)(F)F)c(N2C(=O)CS/C2=N\C(=O)Nc2ccc(-c3ncn(-c4ccc(OC(F)(F)F)cc4)n3)cc2C)c1` [Compound J641], the BAW rating result in assay [1] is recorded as “A (50-100)”. Besides, in assay [2], the CL rating entry is “A (50-100)”.

Consider `CCc1ccc(COCC(F)(F)F)c(N2C(=O)CS/C2=N\C(=O)Nc2ccc(-c3ncn(-c4ccc(C(F)(F)F)cc4)n3)cc2F)c1` [Compound J642], for which the BAW rating result in assay [1] was “A (50-100)”. In assay [2], the CL rating result is “A (50-100)”.

For `Cc1ccc(C(C)C)c(N2C(=O)CS/C2=N\C(=O)Nc2ccc(-c3cn(-c4ccc(S(=O)(=O)C(F)(F)F)cc4)cn3)cc2F)c1` [Compound J651, (Z)-1-(2-Fluoro-4-(1-(4-((trifluoromethyl)sulfonyl)phenyl)-1H-imidazol-4-yl)phenyl)-3-(3-(2-isopropyl-5-methylphenyl)-4-oxothiazolidin-2-ylidene)urea], the pest or weed control at 50 µg/cm2 in assay [1] and in assay [2] was 50 to 100% each time.

For `Cc1cc(COCC(F)(F)F)c(N2C(=O)CS/C2=N\C(=O)Nc2ccc(-c3ncn(-c4ccc(C(F)(F)F)cc4)n3)cc2F)cc1C` [Compound J660], the BAW rating entry in assay [1] is listed as “A (50-100)”. The CL rating entry in assay [2] is given as “A (50-100)”.

For `O=C(/N=C1\SCC(=O)N1c1ccccc1COCC(F)(F)F)Nc1ccc(-c2ncn(-c3ccc(C(F)(F)F)cc3)n2)cc1F` [Compound J661], the BAW rating entry in assay [1] is on record as “A (50-100)”. In addition, the CL rating entry in assay [2] was “A (50-100)”.

For the compound `Cc1ccc(COCC(F)(F)F)c(N2C(=O)CS/C2=N\C(=O)Nc2ccc(-c3ncn(-c4ccc(OC(F)(F)C(F)(F)F)cc4)n3)cc2F)c1` [Compound J662], in assay [1], the BAW rating entry was “A (50-100)”. In assay [2], the CL rating entry is on record as “A (50-100)”.

As to `Cc1ccc(C(C)C)c(N2C(=O)CS/C2=N\C(=O)Nc2ncc(-c3ncn(-c4ccc(C(F)(F)F)cc4)n3)cc2C)c1` [Compound J664, (Z)-1-(3-(2-isopropyl-5-methylphenyl)-4-oxothiazolidin-2-ylidene)-3-(3-methyl-5-(1-(4-(trifluoromethyl)phenyl)-1H-1,2,4-triazol-3-yl)pyridin-2-yl)urea], the pest or weed control at 50 µg/cm2 in assay [1] and in assay [2] was 50 to 100% throughout.

Turning to `O=C(/N=C1\SCC(=O)N1c1cc(F)ccc1COCC(F)(F)F)Nc1ccc(-c2ncn(-c3ccc(S(=O)(=O)C(F)(F)F)cc3)n2)cc1F` [Compound J670, (Z)-1-(3-(5-Fluoro-2-((2,2,2-trifluoroethoxy)methyl)phenyl)-4-oxothiazolidin-2-ylidene)-3-(2-fluoro-4-(1-(4-((trifluoromethyl)sulfonyl)phenyl)-1H-1,2,4-triazol-3-yl)phenyl)urea], the pest or weed control at 50 µg/cm2 in assay [1] and in assay [2] was 50 to 100% throughout.

Take `COCc1ccc(N(C)C)cc1N1C(=O)CS/C1=N\C(=O)Nc1ccc(-c2ncn(-c3ccc(S(=O)(=O)C(F)(F)F)cc3)n2)cc1F` [Compound J671, (Z)-1-(3-(5-(Dimethylamino)-2-(methoxymethyl)phenyl)-4-oxothiazolidin-2-ylidene)-3-(2-fluoro-4-(1-(4-((trifluoromethyl)sulfonyl)phenyl)-1H-1,2,4-triazol-3-yl)phenyl)urea]: the pest or weed control at 50 µg/cm2 in assay [1] and in assay [2] was 50 to 100% throughout.

Take `CN(C)c1ccc(OCC(F)(F)F)c(N2C(=O)CS/C2=N\C(=O)Nc2ccc(-c3ncn(-c4ccc(S(=O)(=O)C(F)(F)F)cc4)n3)cc2F)c1` [Compound J672, (Z)-1-(3-(5-(Dimethylamino)-2-(2,2,2-trifluoroethoxy)phenyl)-4-oxothiazolidin-2-ylidene)-3-(2-fluoro-4-(1-(4-((trifluoromethyl)sulfonyl)phenyl)-1H-1,2,4-triazol-3-yl)phenyl)urea]: the pest or weed control at 50 µg/cm2 in assay [1] and in assay [2] was 50 to 100% in each case.

Consider `Cc1ccc(Cc2ccc(F)cc2)c(N2C(=O)CS/C2=N\C(=O)Nc2ccc(-c3ncn(-c4ccc(OC(F)(F)F)cc4)n3)cc2F)c1` [Compound J674, (Z)-1-(2-Fluoro-4-(1-(4-(trifluoromethoxy)phenyl)-1H-1,2,4-triazol-3-yl)phenyl)-3-(3-(2-(4-fluorobenzyl)-5-methylphenyl)-4-oxothiazolidin-2-ylidene)urea], for which the pest or weed control at 50 µg/cm2 in assay [1] and in assay [2] was 50 to 100% throughout.

For the compound `Cc1ccc(Cc2cccc(F)c2)c(N2C(=O)CS/C2=N\C(=O)Nc2ccc(-c3ncn(-c4ccc(OC(F)(F)F)cc4)n3)cc2F)c1` [Compound J676, (Z)-1-(2-Fluoro-4-(1-(4-(trifluoromethoxy)phenyl)-1H-1,2,4-triazol-3-yl)phenyl)-3-(3-(2-(3-fluorobenzyl)-5-methylphenyl)-4-oxothiazolidin-2-ylidene)urea], the pest or weed control at 50 µg/cm2 in assay [1] and in assay [2] was 50 to 100% each time.

`Cc1cccc(N2C(=O)CS/C2=N\C(=O)Nc2ccc(-c3ncn(-c4ccc(C(F)(F)F)cc4)n3)cc2F)c1COCC(F)(F)F` [Compound J677]: the BAW rating result in assay [1] was “A (50-100)”. Also, in assay [2], the CL rating entry is recorded as “A (50-100)”.

For the compound `Cc1ccc(COCC(F)(F)F)c(N2C(=O)CS/C2=N\C(=O)Nc2ccc(-c3ncn(-c4ccc(OC(F)(F)F)cc4)n3)cc2F)c1C` [Compound J678], the BAW rating entry in assay [1] is given as “A (50-100)”. Further, the CL rating result in assay [2] is given as “A (50-100)”.

For the compound `Cc1cc(-c2ncn(-c3ccc(OC(F)(F)F)cc3)n2)ccc1NC(=O)/N=C1\SCC(=O)N1c1c(COCC(F)(F)F)ccc(C)c1C` [Compound J679], in assay [1], the BAW rating result is given as “A (50-100)”. The CL rating result in assay [2] is “A (50-100)”.

Turning to `Cc1ccc(COCC(F)(F)F)c(N2C(=O)CS/C2=N\C(=O)Nc2ccc(-c3ncn(-c4ccc(C(F)(F)F)cc4)n3)cc2F)c1C` [Compound J680], the BAW rating result in assay [1] is listed as “A (50-100)”. Moreover, the CL rating entry in assay [2] is given as “A (50-100)”.
